Reference: ChEMBL document CHEMBL1201862, “PubChem BioAssay data set” (2004)
Active and inactive are the calls of the source.

Key:
[1] = target: T1, Corticotropin-releasing factor receptor 2/Corticotropin-releasing factor-binding protein (Homo sapiens, UniProt P24387+Q13324); experiment: Dose Response confirmation of uHTS hits for small molecule antagonists of the CRF-binding protein and CRF-R2 receptor complex.; format: functional; conditions: read-out: IC50_Mean
T1 sequence (Q13324 whole entry): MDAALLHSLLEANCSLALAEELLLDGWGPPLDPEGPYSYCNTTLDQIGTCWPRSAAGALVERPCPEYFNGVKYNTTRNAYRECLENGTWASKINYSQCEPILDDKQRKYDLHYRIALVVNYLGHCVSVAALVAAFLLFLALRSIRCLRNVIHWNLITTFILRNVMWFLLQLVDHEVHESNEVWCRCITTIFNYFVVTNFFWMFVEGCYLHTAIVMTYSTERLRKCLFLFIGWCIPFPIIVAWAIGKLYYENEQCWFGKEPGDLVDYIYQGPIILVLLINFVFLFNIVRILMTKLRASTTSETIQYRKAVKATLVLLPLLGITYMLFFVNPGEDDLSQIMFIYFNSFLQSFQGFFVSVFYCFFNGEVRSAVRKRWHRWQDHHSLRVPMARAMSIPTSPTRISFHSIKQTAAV
T1 sequence (P24387 whole entry): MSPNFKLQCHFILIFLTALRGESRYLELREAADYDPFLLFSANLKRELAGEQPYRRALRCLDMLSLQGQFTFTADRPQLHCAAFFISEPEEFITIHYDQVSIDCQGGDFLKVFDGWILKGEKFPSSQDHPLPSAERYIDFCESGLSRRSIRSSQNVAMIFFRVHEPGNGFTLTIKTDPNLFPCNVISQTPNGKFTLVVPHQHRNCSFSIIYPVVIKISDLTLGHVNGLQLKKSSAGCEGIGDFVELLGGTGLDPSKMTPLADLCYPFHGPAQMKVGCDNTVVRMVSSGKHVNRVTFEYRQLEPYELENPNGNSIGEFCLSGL

[2] = target: T1, Corticotropin-releasing factor receptor 2/Corticotropin-releasing factor-binding protein; experiment: activators of CRF receptor 2 with binding protein – uHTS hits, confirmation (AID 602473); format: functional; conditions: read-out: EC50_Mean
[3] = CRF-BP/CRF-R2 complex antagonists, dose response, cell-based, uHTS hits, 384-well (AID 651639); format: functional, Homo sapiens; conditions: read-out: IC50_Mean

IC50 [1]	EC50 [2]	IC50 [3]	Structure (SMILES)
4.32 µM (active)	> 53 µM (inactive)	8.75 µM (active)	Cc1ccc(NC(=O)COC(=O)CCc2c[nH]c3ccccc23)c(C)c1
7.25 µM (active)	> 53 µM (inactive)	> 20 µM (inactive)	O=C1CC(c2ccccc2)SC(N(c2ccccc2)c2ccccc2)=N1 (stereo unspecified)
